Values quoted from earlier work as cited in patent US20080069909A1, “MENOPAUSE DISORDER SYNERGISTIC PHYTO-NUTRACEUTICAL COMPOSITION” (priority 2006, published 2008).
Read-outs that look alike come from different tables or passages of the source. Values belong to the molecule of their own block, whether it stands above or below them.

Key:
[1] = test system: bacterial resistance mechanism (multidrug pump)
[2] = test system: estrogen receptors
[3] = test system: estrogen inducible genes
[4] = molecular target: beta-estrogenic receptor (Homo sapiens, UniProt Q92731)
[5] = test system: estrogen receptor

beta-estrogenic receptor, sequence (Q92731 whole entry): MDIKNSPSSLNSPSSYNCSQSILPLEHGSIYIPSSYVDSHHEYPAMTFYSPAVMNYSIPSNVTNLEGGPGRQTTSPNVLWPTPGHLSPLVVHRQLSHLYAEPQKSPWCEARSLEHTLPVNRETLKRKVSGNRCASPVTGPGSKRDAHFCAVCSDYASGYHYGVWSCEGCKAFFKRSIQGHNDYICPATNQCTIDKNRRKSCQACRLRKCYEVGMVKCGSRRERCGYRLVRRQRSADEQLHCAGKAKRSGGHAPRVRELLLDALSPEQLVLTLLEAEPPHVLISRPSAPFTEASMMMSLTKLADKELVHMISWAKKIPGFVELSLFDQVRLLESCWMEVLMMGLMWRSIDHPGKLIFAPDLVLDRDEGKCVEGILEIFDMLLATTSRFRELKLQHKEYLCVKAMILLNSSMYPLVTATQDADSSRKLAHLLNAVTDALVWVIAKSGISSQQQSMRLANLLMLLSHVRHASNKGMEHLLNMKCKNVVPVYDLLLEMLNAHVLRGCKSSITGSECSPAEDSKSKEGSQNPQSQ

SMILES: COc1cc([C@H]2Oc3cc(-c4cc(=O)c5c(O)cc(O)cc5o4)cc(OC)c3O[C@@H]2CO)ccc1O (racemic) [5′-MHC, 5′-methoxyhydnocarpin]
activity of herbal Berberine alkaloids ([1]; by the action of 5′-MHC): strongly potentiated
accumulation of berberine in the cells ([1]; in the presence of 5′-MHC): strong increase

binding to estrogen receptors [2]: can bind to estrogen receptors
SMILES: CCCCC/C=C\C/C=C\CCCCCCCC(=O)O [Linoleic acid]
induction of estrogen inducible genes [3]: induce certain estrogen inducible genes

receptor ligand [4]: specific ligands
SMILES: COc1cc2oc(-c3ccc(O)cc3)c(OC)c(=O)c2c(O)c1OC [Penduletin]

receptor ligand [4]: specific ligands
SMILES: O=c1cc(-c2ccc(O)cc2)oc2cc(O)cc(O)c12 [apigenin]

SMILES: O=c1c(-c2ccc(O)cc2)coc2c([C@@H]3O[C@H](CO)[C@@H](O)[C@H](O)[C@H]3O)c(O)ccc12 [puerarin]
estrogen-like effect ([5]; estrogen-deficiency animals): weak estrogen-like effect
estrogen-like effect ([5]; high-estrogen-level animals): antiestrogen-like effect
estrogen-like effect ([5]; normal-estrogen level animals): no effect
